Experimental data reported in patent publication EP2292237A1, “Sigma ligands for the prevention or treatment of pain induced by chemotherapy” (Laboratorios del. Dr. Esteve, S.A., priority 2009, dated 2011).
Entries after “also recorded” stand apart in the source; their conditions may differ. Where two headings read alike, the source gives them in different places.

Experiments:
CD-1 mice [1] = experiment: Acetone test: development of paclitaxel-induced cold allodynia, co-administration with paclitaxel or paclitaxel vehicle; format: in vivo; conditions: for duration of acetone-induced paw licking/biting: 64 mg/kg s.c. 30 min before each i.p. paclitaxel dose (2 mg/kg), versus paclitaxel + saline; for duration of acetone-induced paw licking/biting / days with statistically significant differences in duration of acetone-induced licking/biting versus paclitaxel + saline: days 1 to 5; for days with statistically significant differences in duration of acetone-induced licking/biting versus paclitaxel + saline: 64 mg/kg s.c. 30 min before each i.p. paclitaxel dose, days after the first dose of paclitaxel; for response of the animals to acetone (duration of hind paw licking/biting): co-administration days 1 to 5 of paclitaxel-vehicle i.p. and compound 64 mg/kg s.c., versus paclitaxel-vehicle + saline, hydrochloride, 64 mg/kg; for development of cold allodynia induced by paclitaxel: co-administration of paclitaxel (2 mg/kg, i.p.) and compound (64 mg/kg, s.c.)
CD-1 mice [2] = experiment: Acetone test: expression of paclitaxel-induced cold allodynia, single s.c. injection on day 10; format: in vivo; conditions: for expression of cold allodynia induced by paclitaxel: acute treatment 32-64 mg/kg s.c. on day 10 in mice pretreated with paclitaxel; for response to acetone of control (paclitaxel-vehicle treated) animals: acute treatment 32 or 64 mg/kg s.c. on day 10; for duration of hind paw licking/biting (acetone test) versus saline: single s.c. injection 64 mg/kg in mice pretreated with paclitaxel-vehicle (Figs. 7 and 8)
Description: Experiments were performed in CD-1 mice (Charles River, U.S.A.) with at least n = 10/experimental group. Mice weighing 25-30 g were used. The animals were housed in colony cages with free access to food and water prior to the experiments. They were maintained in temperature- and light-controlled rooms (22 ± 1 °C, lights on at 08.00 h and off at 20.00 h, air replacement every 20 min). Testing took place during the light phase (from 9.00 h to 15.00 h).
Therefore, the cumulative dose was 10 mg/kg per mouse.
Compounds 1a and 1b were dissolved in normal saline just before administration and applied at doses of 32 or 64 mg/kg subcutaneously.
The response of the animals to the different nociceptive stimuli was tested subsequently during 2-4 weeks, depending on the test (see below), without any additional treatment. Each animal was tested only in one nociceptive model. […] Each animal received only one dose of compound 1 a or 1b and was tested in only one nociceptive model.
Procedure for assessment of cold allodynia. Cold allodynia was tested as previously described by Smith et al. in Life Sci., 2004, 74(21), 2593-604, by gently touching the plantar skin of the hind paws with an acetone bubble formed with a syringe connected to a thin polyethylene tube. The mice were housed and habituated for 30 min in transparent plastic boxes (7 x 7 x 13 cm) with a floor made of wire mesh. After the adaptation period, acetone was applied alternately three times to each paw at intervals of 30 s, and the duration and frequency of licking or biting were recorded. A small mirror was placed behind the chambers to allow clear observation of the paws. The time spent licking or biting the paw was recorded by a stopwatch and represented as the cumulative time of licking/biting in the six measurements. Since licking persisting more than 10 s in the experiments was very unusual, a cut-off time of 10 s was used for each trial. […]
On that day, duration of hind paw licking/biting was recorded immediately before (time 0) and at several times (60, 120 and 180 min) after the injection of compound 1 a, compound 1 b or saline.
On that day, duration of hind paw licking/biting was recorded immediately before (time 0) and at several times (60, 120 and 180 min) after the injection of compound 1a, compound 1b or saline.

patients = conditions: cited from earlier work

Structure (SMILES) | duration of acetone-induced paw licking/biting (CD-1 mice [1]) | days with statistically significant differences in duration of acetone-induced licking/biting versus paclitaxel + saline (CD-1 mice [1]) | response of the animals to acetone (duration of hind paw licking/biting) (CD-1 mice [1]) | development of cold allodynia induced by paclitaxel (CD-1 mice [1]) | response to acetone of control (paclitaxel-vehicle treated) animals (CD-1 mice [2]) | duration of hind paw licking/biting (acetone test) versus saline (CD-1 mice [2]) | further results
CC(=O)O[C@H]1C(=O)[C@@]2(C)[C@H]([C@H](OC(=O)c3ccccc3)[C@]3(O)C[C@H](OC(=O)[C@H](O)[C@@H](NC(=O)c4ccccc4)c4ccccc4)C(C)=C1C3(C)C)[C@]1(OC(C)=O)CO[C@@H]1C[C@@H]2O [paclitaxel, Paclitaxel, reference compound] |  |  |  |  |  |  | duration of paw licking/biting in the acetone test (CD-1 mice [1]; paclitaxel (i.p., 2 mg/kg) and saline (s.c.) co-administered days 1 to 5, began on day 7, maximum on day 14): significant increase; control animals treated with paclitaxel that did not show cold allodynia (CD-1 mice [2]; 'non-responders': less than 2 s licking/biting on days 7 and 10 after paclitaxel): Around 33%; cold allodynia (increase in the duration of acetone-induced paw licking/biting) (CD-1 mice [2]; paclitaxel i.p. once daily days 1 to 5, evaluated 10 days after the first dose): developed cold allodynia; progressing to dose-limiting neurotoxicity in % of patients (patients; paclitaxel dose 135 mg/m^2): 0%; progressing to dose-limiting neurotoxicity in % of patients (patients; paclitaxel dose 175 mg/m^2): 21%; progressing to dose-limiting neurotoxicity in % of patients (patients; paclitaxel dose 250-300 mg/m^2): 71%
O=C(O)C(=O)O.c1ccc(-n2ncc3c2CCCC3CCN2CCOCC2)cc1 (stereo not shown) [compound 2, 4,5,6,7-tetrahydro-4-(2-(morpholin-4-yl)ethyl)-1-phenyl-1H-indazole oxalate] |  |  |  |  |  |  | duration of acetone-induced licking/biting (CD-1 mice [2]; acute injection 32-64 mg/kg s.c., 10 days after the first dose of paclitaxel): dose-dependently reduced
Cl.c1ccc(-n2ncc3c2CCC[C@H]3CCN2CCOCC2)cc1 [compound 1a, (S)-4,5,6,7-tetrahydro-4-(2-(morpholin-4-yl)ethyl)-1-phenyl-1H-indazole hydrochloride] | reduced | from day 7 to day 21 | did not significantly modify; also recorded: No statistically significant differences | inhibited | did not affect | No statistically significant differences | times at which the effect was statistically significant in comparison with the saline-treated group (CD-1 mice [2]; acute treatment 32-64 mg/kg s.c. on day 10, time after administration of the drug): at all times evaluated from 60 to 180 min; expression of cold allodynia induced by paclitaxel (CD-1 mice [2]; hydrochloride): dose-dependently inhibited
Cl.c1ccc(-n2ncc3c2CCC[C@@H]3CCN2CCOCC2)cc1 [compound 1b, (R)-4,5,6,7-tetrahydro-4-(2-(morpholin-4-yl)ethyl)-1-phenyl-1H-indazole hydrochloride] | reduced | at days 7, 14 and 21 | did not significantly modify; also recorded: No statistically significant differences | inhibited | did not affect | No statistically significant differences | expression of cold allodynia induced by paclitaxel (CD-1 mice [2]): inhibited
